According to US20230373985A1 (Origenis Gmbh, priority 2020, published 2023):

What follows are compounds tested against T1, wt human TYK2, catalytic site (Homo sapiens, UniProt P29597) (assay: HTRF KinEASE assay, TYK2). Settings: 1 μM ATP; read-out: IC50, Activity Toward TYK2.
T1 construct: wt human TYK2, catalytic site; purchased SignalChem
T1 sequence (P29597 897-1176 limits assumed): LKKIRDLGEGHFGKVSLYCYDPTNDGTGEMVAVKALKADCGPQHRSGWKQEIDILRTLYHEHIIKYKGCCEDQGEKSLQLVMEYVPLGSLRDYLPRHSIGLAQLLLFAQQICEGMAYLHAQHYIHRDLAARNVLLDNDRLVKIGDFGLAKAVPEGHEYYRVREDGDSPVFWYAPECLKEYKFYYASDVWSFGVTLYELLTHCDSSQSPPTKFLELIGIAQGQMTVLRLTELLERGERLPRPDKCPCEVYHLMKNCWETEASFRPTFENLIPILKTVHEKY
Assay type: biochemical
Method: Basic protocol for HTRF KinEASE assay (Cisbio/FRA) inhibitor studies involved two steps: • Enzymatic step: Addition of 4 μL of test compound in corresponding DMSO dilutions, 4 μL of kinase/substrate mixture, 2 μL of ATP into 384 well small volume plates. Incubation for at least 30 minutes at room temperature. • Detection step: Addition of 5 μL antibody and 5 μL streptavidin-XL665, read plate after 60 minutes. Data analysis of emission ratios according KinEASE assay protocol.
(§1) Kinase and assay components were adjusted to final concentrations according to kit protocol. For TYK2: 2 nM wt human TYK2, catalytic site (SignalChem/CAN), 1 μM HTRF KinEASE-TK Substrate-biotin, 1 μM ATP in 1× Kinase Buffer. For JAK1: 4 nM wt human JAK1, catalytic site (ThermoFisher/USA), 1 μM HTRF KinEASE-TK Substrate-biotin, 2.5 μM ATP in 1× Kinase Buffer. For JAK2: 1 nM wt human JAK2, catalytic site (SignalChem/CAN), 1 μM HTRF KinEASE-TK Substrate-biotin, 100 μM ATP in 1× Kinase Buffer.
as §1

| SMILES | IC50 [nM] |
| --- | --- |
| Cc1cc(Nc2cn(-c3ccccc3F)nc2C(N)=O)ncn1 [compound 5, 1-(2-fluorophenyl)-4-((6-methylpyrimidin-4-yl)amino)-1H-pyrazole-3-carboxamide] | 100 to 1000 |
| NC(=O)c1nn(-c2c(F)cccc2F)cc1Nc1ccc(N)cn1 [compound 6, 4-((5-aminopyridin-2-yl)amino)-1-(2,6-difluorophenyl)-1H-pyrazole-3-carboxamide] | 100 to 1000 |
| NC(=O)c1nn(-c2c(Cl)cccc2Cl)cc1Nc1ccccc1 [compound 21, 1-(2,6-dichlorophenyl)-4-(phenylamino)-1H-pyrazole-3-carboxamide] | 100 to 1000 |
| CCNC(=O)c1ccc(Nc2cn(-c3c(F)cccc3F)nc2C(N)=O)cn1 [compound 24, 5-((3-carbamoyl-1-(2,6-difluorophenyl)-1H-pyrazol-4-yl)amino)-N-ethylpicolinamide] | 100 to 1000 |
| CCNC(=O)c1ccc(Nc2cn(-c3c(F)cccc3OC)nc2C(N)=O)cn1 [compound 25, 5-((3-carbamoyl-1-(2-fluoro-6-methoxyphenyl)-1H-pyrazol-4-yl)amino)-N-ethylpicolinamide] | 100 to 1000 |
| NC(=O)c1nn(-c2c(Cl)cccc2Cl)cc1Nc1ccc(-n2nnc3ccccc32)cc1 [compound 81, 4-((4-(1H-benzo[d][1,2,3]triazol-1-yl)phenyl)amino)-1-(2,6-dichlorophenyl)-1H-pyrazole-3-carboxamide] | 100 to 1000 |
| NC(=O)c1nn(-c2c(Cl)cccc2Cl)cc1Nc1ccc(-n2c(=O)sc3ccccc32)cc1 [compound 201, 1-(2,6-dichlorophenyl)-4-((4-(2-oxobenzo[d]thiazol-3(2H)-yl)phenyl)amino)-1H-pyrazole-3-carboxamide] | 100 to 1000 |
| NC(=O)c1nn(-c2c(Cl)cccc2Cl)cc1Nc1ccc(-n2nc3c(c2C(F)(F)F)CCCC3)cc1 [compound 236, 1-(2,6-dichlorophenyl)-4-((4-(3-(trifluoromethyl)-4,5,6,7-tetrahydro-2H-indazol-2-yl)phenyl)amino)-1H-pyrazole-3-carboxamide] | 100 to 1000 |
| Cc1cc(C(F)(F)F)nn1-c1ccc(Nc2cn(-c3c(Cl)cccc3Cl)nc2C(N)=O)cc1 [compound 257, 1-(2,6-dichlorophenyl)-4-((4-(5-methyl-3-(trifluoromethyl)-1H-pyrazol-1-yl)phenyl)amino)-1H-pyrazole-3-carboxamide] | 100 to 1000 |
| CC(C)c1nc(C(F)(F)F)nn1-c1ccc(Nc2cn(-c3c(Cl)cccc3Cl)nc2C(N)=O)cc1 [compound 274, 1-(2,6-dichlorophenyl)-4-((4-(5-isopropyl-3-(trifluoromethyl)-1H-1,2,4-triazol-1-yl)phenyl)amino)-1H-pyrazole-3-carboxamide] | 100 to 1000 |
| CCn1nc(C(F)(F)F)nc1-c1ccc(Nc2cn(-c3c(Cl)cccc3Cl)nc2C(N)=O)cc1 [compound 278, 1-(2,6-dichlorophenyl)-4-((4-(1-ethyl-3-(trifluoromethyl)-1H-1,2,4-triazol-5-yl)phenyl)amino)-1H-pyrazole-3-carboxamide] | 100 to 1000 |
| CCCc1nc(C(F)(F)F)nn1-c1ccc(Nc2cn(-c3c(Cl)cccc3Cl)nc2C(N)=O)cc1 [compound 279, 1-(2,6-dichlorophenyl)-4-((4-(5-propyl-3-(trifluoromethyl)-1H-1,2,4-triazol-1-yl)phenyl)amino)-1H-pyrazole-3-carboxamide] | 100 to 1000 |
| CC(C)n1nc(C(F)(F)F)nc1-c1ccc(Nc2cn(-c3c(Cl)cccc3Cl)nc2C(N)=O)cc1 [compound 280, 1-(2,6-dichlorophenyl)-4-((4-(1-isopropyl-3-(trifluoromethyl)-1H-1,2,4-triazol-5-yl)phenyl)amino)-1H-pyrazole-3-carboxamide] | 100 to 1000 |
| CCn1nc(C(F)(F)F)nc1-c1ccc(Nc2cn(-c3c(F)cccc3Cl)nc2C(N)=O)cc1 [compound 289, 1-(2-chloro-6-fluorophenyl)-4-((4-(1-ethyl-3-(trifluoromethyl)-1H-1,2,4-triazol-5-yl)phenyl)amino)-1H-pyrazole-3-carboxamide] | 100 to 1000 |
| NC(=O)c1nn(-c2c(Cl)cccc2Cl)cc1Nc1ccc(-c2nc(C(F)(F)F)cn2C2COC2)cc1 [compound 301, 1-(2,6-dichlorophenyl)-4-((4-(1-(oxetan-3-yl)-4-(trifluoromethyl)-1H-imidazol-2-yl)phenyl)amino)-1H-pyrazole-3-carboxamide] | < 10 |
| CN(C)CCn1cc(C(F)(F)F)nc1-c1ccc(Nc2cn(-c3c(Cl)cccc3Cl)nc2C(N)=O)cc1 [compound 306, 1-(2,6-dichlorophenyl)-4-((4-(1-(2-(dimethylamino)ethyl)-4-(trifluoromethyl)-1H-imidazol-2-yl)phenyl)amino)-1H-pyrazole-3-carboxamide] | 10 to 100 |
| CCCn1cc(C(F)(F)F)nc1-c1ccc(Nc2cn(-c3c(Cl)cccc3Cl)nc2C(N)=O)cc1 [compound 311, 1-(2,6-dichlorophenyl)-4-((4-(1-propyl-4-(trifluoromethyl)-1H-imidazol-2-yl)phenyl)amino)-1H-pyrazole-3-carboxamide] | 100 to 1000 |
| COCc1nc(C(F)(F)F)nn1-c1ccc(Nc2cn(-c3c(Cl)cccc3Cl)nc2C(N)=O)cn1 [compound 328, 1-(2,6-dichlorophenyl)-4-((6-(5-(methoxymethyl)-3-(trifluoromethyl)-1H-1,2,4-triazol-1-yl)pyridin-3-yl)amino)-1H-pyrazole-3-carboxamide] | 100 to 1000 |
| CCc1nc(C(F)(F)F)nn1-c1ccc(Nc2cn(-c3c(Cl)cccc3Cl)nc2C(N)=O)cn1 [compound 329, 1-(2,6-dichlorophenyl)-4-((6-(5-ethyl-3-(trifluoromethyl)-1H-1,2,4-triazol-1-yl)pyridin-3-yl)amino)-1H-pyrazole-3-carboxamide] | 100 to 1000 |
| NC(=O)c1nn(-c2c(Cl)cccc2Cl)cc1Nc1ccc(-n2cncn2)nc1 [compound 337, 4-((6-(1H-1,2,4-triazol-1-yl)pyridin-3-yl)amino)-1-(2,6-dichlorophenyl)-1H-pyrazole-3-carboxamide] | 100 to 1000 |
| CCn1cc(C(F)(F)F)nc1-c1ccc(Nc2cn(-c3c(Cl)cccc3Cl)nc2C(N)=O)cn1 [compound 339, 1-(2,6-dichlorophenyl)-4-((6-(1-ethyl-4-(trifluoromethyl)-1H-imidazol-2-yl)pyridin-3-yl)amino)-1H-pyrazole-3-carboxamide] | 100 to 1000 |
| CCc1ncnn1-c1ccc(Nc2cn(-c3c(Cl)cccc3Cl)nc2C(N)=O)cn1 [compound 343, 1-(2,6-dichlorophenyl)-4-((6-(5-ethyl-1H-1,2,4-triazol-1-yl)pyridin-3-yl)amino)-1H-pyrazole-3-carboxamide] | 100 to 1000 |
| NC(=O)c1nn(-c2c(Cl)cccc2Cl)cc1Nc1ccc(N2CCCC2=O)nc1 [compound 345, 1-(2,6-dichlorophenyl)-4-((6-(2-oxopyrrolidin-1-yl)pyridin-3-yl)amino)-1H-pyrazole-3-carboxamide] | 100 to 1000 |
| Cc1cc(Nc2cn(-c3c(Cl)cccc3Cl)nc2C(N)=O)cnc1-n1cccn1 [compound 346, 1-(2,6-dichlorophenyl)-4-((5-methyl-6-(1H-pyrazol-1-yl)pyridin-3-yl)amino)-1H-pyrazole-3-carboxamide] | 100 to 1000 |
| NC(=O)c1nn(-c2c(Cl)cccc2Cl)cc1Nc1ccc(C(=O)N2CC[C@H](N)C2)cn1 [compound 368, (S)-4-((5-(3-aminopyrrolidine-1-carbonyl)pyridin-2-yl)amino)-1-(2,6-dichlorophenyl)-1H-pyrazole-3-carboxamide] | 100 to 1000 |
